Measurements: ChEMBL document CHEMBL3045224, “New insecticidal compounds, communesins C, D and E, from Penicillium expansum link MK-57” (2004)

Each molecule was assayed on Bombyx mori (assay: Insecticidal activity against po dosed third-instar larvae of Bombyx mori assessed as gram of diet).
Assay type: functional
`CC(=O)N1CC[C@@]23c4ccccc4N[C@@H]4N(C)c5cccc6c5[C@@]42CCN([C@@H]13)[C@@H]6[C@H]1OC1(C)C` [COMMUNESIN A] gave an LD50 of 150 mg/kg. Work on `C/C=C/C=C/C(=O)N1CC[C@@]23c4ccccc4N[C@@H]4N(C)c5cccc6c5[C@@]42CCN([C@@H]13)[C@@H]6[C@H]1OC1(C)C` [COMMUNESIN B] yielded an LD50 of 5 mg/kg. With `C/C=C/C=C/C(=O)N1CC[C@@]23c4ccccc4N[C@@H]4Nc5cccc6c5[C@@]42CCN([C@@H]13)[C@@H]6[C@H]1OC1(C)C` [COMMUNESIN C] the LD50 was 300 mg/kg. With `C/C=C/C=C/C(=O)N1CC[C@@]23c4ccccc4N[C@@H]4N(C=O)c5cccc6c5[C@@]42CCN([C@@H]13)[C@@H]6[C@H]1OC1(C)C` [COMMUNESIN D] the LD50 was 80 mg/kg. In the case of `CC(=O)N1CC[C@@]23c4ccccc4N[C@@H]4N(C)c5cccc6c5[C@@]42CCN([C@@H]6C=C(C)C)[C@@H]13` [COMMUNESIN E], the LD50 is reported as 80 mg/kg.
